pIC50: −log10 of the molar value.

In the first assay the target is T1, TNFα / TNFα receptor (TNFα R1/Fc) (Homo sapiens, UniProt P01375).
T1 construct: purchased R&D Systems
T1 sequence (P01375 77-233 limits assumed, species assumed): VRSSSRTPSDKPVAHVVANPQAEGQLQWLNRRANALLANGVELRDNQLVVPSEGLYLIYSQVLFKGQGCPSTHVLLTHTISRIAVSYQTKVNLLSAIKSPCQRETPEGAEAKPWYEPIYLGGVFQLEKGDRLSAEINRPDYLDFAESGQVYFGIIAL
Nature of the assay: Inhibition of binding of TNFα to the TNFα receptor (plate ELISA competition). To be noted: Activity (IC50, inhibition of TNFα binding to TNFα R1/Fc), Table 2. The procedure, abridged:
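Compound dilutions were preincubated 30 min at RT with 8.33 nM TNFα R1/Fc in PBST with 2% DMSO, then added to wells coated with 15 nM TNFα for 30 min. Bound receptor was detected with HRP anti-human Fc and TMB, read as A450.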
The molecule `CN(C(=O)[C@@H]1Cc2ccc(cc2)OCC(=O)N[C@@H](Cc2cccs2)C(=O)N[C@H](Cc2ccc(-c3ccccc3)cc2)C(=O)N[C@@H](CCc2ccccc2)C(=O)N1)[C@@H](Cc1ccccc1)C(=O)O` [Compound 621] gave a pIC50 greater than 5.00.

Molecule `O=C1COc2ccc(cc2)C[C@@H](C(=O)O)NC(=O)[C@H](CCc2ccccc2)NC(=O)[C@@H](Cc2ccc(-c3ccncc3)cc2)NC(=O)[C@H](Cc2cccs2)N1` [Compound 658] showed a pIC50 greater than 5.00.

Staying with this assay, now noted: Table 2; read-out: Activity (IC50, inhibition of TNFα binding to TNFα R1/Fc).
Take `O=C1COc2ccc(cc2)C[C@@H](C(=O)N[C@@H](CCc2ccccc2)C(=O)O)NC(=O)[C@H](CCc2ccccc2)NC(=O)[C@@H](Cc2ccc(-c3ccccc3)cc2)NC(=O)[C@H](Cc2ccc(-c3ccncc3)cc2)N1` [Compound 623]: the pIC50 is greater than 5.00.

As to `O=C1COc2ccc(cc2)C[C@@H](C(=O)N[C@H](CCc2ccccc2)C(=O)O)NC(=O)[C@H](CCc2ccccc2)NC(=O)[C@@H](Cc2ccc(-c3ccccc3)cc2)NC(=O)[C@H](Cc2ccc(-c3ccncc3)cc2)N1` [Compound 624], the pIC50 was greater than 5.00.

Regarding `O=C1COc2ccc(cc2)C[C@@H](C(=O)O)NC(=O)[C@H](Cc2ccccc2F)NC(=O)[C@@H](Cc2ccc(-c3ccccc3)cc2)NC(=O)[C@H](Cc2cccs2)N1` [Compound 625], the pIC50 is greater than 5.00.

As for `O=C1COc2ccc(cc2)C[C@@H](C(=O)O)NC(=O)[C@H](Cc2cccc(F)c2)NC(=O)[C@@H](Cc2ccc(-c3ccccc3)cc2)NC(=O)[C@H](Cc2cccs2)N1` [Compound 626], the pIC50 is less than 4.00.

Consider `O=C1COc2ccc(cc2)C[C@@H](C(=O)O)NC(=O)[C@H](Cc2ccc(F)cc2)NC(=O)[C@@H](Cc2ccc(-c3ccccc3)cc2)NC(=O)[C@H](Cc2cccs2)N1` [Compound 627], for which the pIC50 was less than 4.00.

For `COc1ccc(C[C@@H]2NC(=O)[C@@H](Cc3ccc(-c4ccccc4)cc3)NC(=O)[C@H](Cc3cccs3)NC(=O)COc3ccc(cc3)C[C@@H](C(=O)O)NC2=O)cc1` [Compound 630], the pIC50 is 4.52 to 5.00.

Regarding `O=C1COc2ccc(cc2)C[C@@H](C(=O)O)NC(=O)[C@H](Cc2ccc(-c3ccccn3)cc2)NC(=O)[C@@H](Cc2ccc(-c3ccccc3)cc2)NC(=O)[C@H](Cc2cccs2)N1` [Compound 632], the pIC50 was greater than 5.00.

On to `O=C1COc2ccc(cc2)C[C@@H](C(=O)O)NC(=O)[C@H](Cc2ccc(-c3cccnc3)cc2)NC(=O)[C@@H](Cc2ccc(-c3ccccc3)cc2)NC(=O)[C@H](Cc2cccs2)N1` [Compound 633], for which the pIC50 was greater than 5.00.

In the case of `O=C1COc2ccc(cc2)C[C@@H](C(=O)O)NC(=O)[C@H](Cc2ccc(-c3ccncc3)cc2)NC(=O)[C@@H](Cc2ccc(-c3ccccc3)cc2)NC(=O)[C@H](Cc2cccs2)N1` [Compound 634], the pIC50 was greater than 5.00.

As for `CC(C)(C)c1ccc(C[C@@H]2NC(=O)[C@@H](Cc3ccc(-c4ccccc4)cc3)NC(=O)[C@H](Cc3cccs3)NC(=O)COc3ccc(cc3)C[C@@H](C(=O)O)NC2=O)cc1` [Compound 635], the pIC50 is greater than 5.00.

For `O=C1COc2ccc(cc2)C[C@@H](C(=O)O)NC(=O)[C@H](Cc2ccc(F)cc2)NC(=O)[C@@H](Cc2ccc(-c3ccccc3)cc2)NC(=O)[C@H](Cc2ccncc2)N1` [Compound 637], the pIC50 was greater than 5.00.

For the molecule `COc1cccc(C[C@@H]2NC(=O)[C@@H](Cc3ccc(-c4ccccc4)cc3)NC(=O)[C@H](Cc3ccncc3)NC(=O)COc3ccc(cc3)C[C@@H](C(=O)O)NC2=O)c1` [Compound 638], the pIC50 is greater than 5.00.

For `COc1ccc(C[C@@H]2NC(=O)[C@@H](Cc3ccc(-c4ccccc4)cc3)NC(=O)[C@H](Cc3ccncc3)NC(=O)COc3ccc(cc3)C[C@@H](C(=O)O)NC2=O)cc1` [Compound 639], the pIC50 is greater than 5.00.

Regarding `O=C1COc2ccc(cc2)C[C@@H](C(=O)O)NC(=O)[C@H](Cc2c[nH]c3ccccc23)NC(=O)[C@@H](Cc2ccc(-c3ccccc3)cc2)NC(=O)[C@H](Cc2cccs2)N1` [Compound 640], the pIC50 is greater than 5.00.

For the molecule `N#Cc1cccc(C[C@H]2CC(=O)N[C@H](C(=O)O)Cc3ccc(cc3)OCC(=O)N[C@@H](Cc3cccs3)C(=O)N[C@H](Cc3ccc(-c4ccccc4)cc3)C(=O)N2)c1` [Compound 641], the pIC50 is greater than 5.00.

`O=C1COc2ccc(cc2)C[C@@H](C(=O)O)NC(=O)[C@H](Cc2ccc(-c3ccccn3)cc2)NC(=O)[C@@H](Cc2ccc(-c3ccccc3)cc2)NC(=O)[C@H](Cc2ccncc2)N1` [Compound 643]: the pIC50 is greater than 5.00.

`O=C1COc2ccc(cc2)C[C@@H](C(=O)O)NC(=O)[C@H](Cc2ccc(-c3cccnc3)cc2)NC(=O)[C@@H](Cc2ccc(-c3ccccc3)cc2)NC(=O)[C@H](Cc2ccncc2)N1` [Compound 644]: the pIC50 was greater than 5.00.

For `O=C1COc2ccc(cc2)C[C@@H](C(=O)O)NC(=O)[C@H](Cc2ccc(-c3ccncc3)cc2)NC(=O)[C@@H](Cc2ccc(-c3ccccc3)cc2)NC(=O)[C@H](Cc2ccncc2)N1` [Compound 645], the pIC50 was greater than 5.00.

Take `O=C1COc2ccc(cc2)C[C@@H](C(=O)O)NC(=O)[C@H](Cc2ccccc2)NC(=O)[C@@H](Cc2ccc(-c3ccccc3)cc2)NC(=O)[C@H](Cc2ccncc2)N1` [Compound 646]: the pIC50 was greater than 5.00.

Consider `O=C1COc2ccc(cc2)C[C@@H](C(=O)O)NC(=O)[C@H](Cc2cccc(C(F)(F)F)c2)NC(=O)[C@@H](Cc2ccc(-c3ccccc3)cc2)NC(=O)[C@H](Cc2ccncc2)N1` [Compound 648], for which the pIC50 was greater than 5.00.

Turning to `O=C1COc2ccc(cc2)C[C@@H](C(=O)O)NC(=O)[C@H](Cc2ccccc2C(F)(F)F)NC(=O)[C@@H](Cc2ccc(-c3ccccc3)cc2)NC(=O)[C@H](Cc2ccncc2)N1` [Compound 649], the pIC50 was greater than 5.00.

With `O=C1COc2ccc(cc2)C[C@@H](C(=O)O)NC(=O)[C@H](Cc2ccc(Cl)cc2Cl)NC(=O)[C@@H](Cc2ccc(-c3ccccc3)cc2)NC(=O)[C@H](Cc2ccncc2)N1` [Compound 650], the pIC50 is greater than 5.00.

With `O=C1COc2ccc(cc2)C[C@@H](C(=O)O)NC(=O)[C@H](Cc2cccs2)NC(=O)[C@@H](Cc2ccc(-c3ccccc3)cc2)NC(=O)[C@H](Cc2ccncc2)N1` [Compound 652], the pIC50 is greater than 5.00.

Take `O=C1COc2ccc(cc2)C[C@@H](C(=O)O)NC(=O)[C@H](Cc2c[nH]c3ccccc23)NC(=O)[C@@H](Cc2ccc(-c3ccccc3)cc2)NC(=O)[C@H](Cc2ccncc2)N1` [Compound 653]: the pIC50 was greater than 5.00.

`O=C1COc2ccc(cc2)C[C@@H](C(=O)O)NC(=O)[C@H](CCc2ccccc2)NC(=O)[C@@H](Cc2ccc(-c3ccc(F)cc3)cc2)NC(=O)[C@H](Cc2cccs2)N1` [Compound 655]: the pIC50 is greater than 5.00.

Regarding `O=C1COc2ccc(cc2)C[C@@H](C(=O)O)NC(=O)[C@H](CCc2ccccc2)NC(=O)[C@@H](Cc2ccc(-c3ccc(O)cc3)cc2)NC(=O)[C@H](Cc2cccs2)N1` [Compound 656], the pIC50 is greater than 5.00.

Take `O=C1COc2ccc(cc2)C[C@@H](C(=O)O)NC(=O)[C@H](CCc2ccccc2)NC(=O)[C@@H](Cc2ccc(-c3ccccc3)cc2)NC(=O)[C@H](Cc2ccccn2)N1` [Compound 660]: the pIC50 is greater than 5.00.

For the molecule `O=C1COc2ccc(cc2)C[C@@H](C(=O)O)NC(=O)[C@H](CCc2ccccc2)NC(=O)[C@@H](Cc2ccc(-c3ccncc3)cc2)NC(=O)[C@H](Cc2ccccn2)N1` [Compound 661], the pIC50 is 4.00 to 4.52.

Consider `O=C1COc2ccc(cc2)C[C@@H](C(=O)O)NC(=O)[C@H](CCc2ccccc2)NC(=O)[C@@H](Cc2ccc(-c3ccccc3)cc2)NC(=O)[C@H](Cc2cccnc2)N1` [Compound 662], for which the pIC50 was greater than 5.00.

(Values after US8338565B2, “Macrocyclic compounds for inhibition of tumor necrosis factor alpha” (Ensemble Therapeutics Corporation, priority 2008, dated 2012).)
